Data as given in ChEMBL document CHEMBL1141332, “Cytotoxic metabolites from an Indonesian sponge Lendenfeldia sp” (J Nat Prod, 2007).

What was measured:
Assay type in all cases: functional
MOLT-4 = assay: Cytotoxicity against human MOLT4 cells
RPMI-8226 = assay: Cytotoxicity against human RPMI8226 cells
A549 = assay: Cytotoxicity against human A549 cells
EKVX = assay: Cytotoxicity against human EKVX cells
HOP-62 = assay: Cytotoxicity against human HOP62 cells
HOP-92 = assay: Cytotoxicity against human HOP92 cells
NCI-H226 = assay: Cytotoxicity against human NCI-H226 cells
NCI-H23 = assay: Cytotoxicity against human NCI-H23 cells
NCI-H322M = assay: Cytotoxicity against human NCI-H322M cells
NCI-H460 = assay: Cytotoxicity against human NCI-H460 cells
LOX IMVI = assay: Cytotoxicity against human LOX IMVI cells
HCC 2998 = assay: Cytotoxicity against human HCC2998 cells
HCT-116 = assay: Cytotoxicity against human HCT116 cells
HCT-15 = assay: Cytotoxicity against human HCT15 cells
HT-29 = assay: Cytotoxicity against human HT29 cells
KM12 = assay: Cytotoxicity against human KM12 cells
SW-620 = assay: Cytotoxicity against human SW620 cells
SF-268 = assay: Cytotoxicity against human SF268 cells
SF-295 = assay: Cytotoxicity against human SF295 cells
SF-539 = assay: Cytotoxicity against human SF539 cells
SNB-19 = assay: Cytotoxicity against human SNB19 cells; conditions: read-out: Log LC50 (the source's name) (converted)
SNB-75 = assay: Cytotoxicity against human SNB75 cells
U-251 = assay: Cytotoxicity against human U251cells
M14 = assay: Cytotoxicity against human M14 cells
SK-MEL-2 = assay: Cytotoxicity against human SK-MEL-2 cells
SK-MEL-28 = assay: Cytotoxicity against human SK-MEL-28 cells
SK-MEL-5 = assay: Cytotoxicity against human SK-MEL-5 cells
UACC-257 = assay: Cytotoxicity against human UACC257 cells
UACC-62 = assay: Cytotoxicity against human UACC62 cells
IGROV-1 = assay: Cytotoxicity against human IGROV1 cells
OVCAR-3 = assay: Cytotoxicity against human OVCAR-3 cells
OVCAR-5 = assay: Cytotoxicity against human OVCAR5 cells
OVCAR-8 = assay: Cytotoxicity against human OVCAR8 cells
SK-OV-3 = assay: Cytotoxicity against human SK-OV-3 cells
786-0 = assay: Cytotoxicity against human 786-0 cells
RXF 393 = assay: Cytotoxicity against human RXF393 cells
SN12C = assay: Cytotoxicity against human SN12C cells
TK-10 = assay: Cytotoxicity against human TK10 cells
UO-31 = assay: Cytotoxicity against human UO31 cells
PC-3 = assay: Cytotoxicity against human PC3 cells
NCI/ADR-RES = assay: Cytotoxicity against human NCI/ADR-RES cells
MDA-MB-231 = assay: Cytotoxicity against human MDA-MB-231 cells
[1] = Cytotoxicity against human HS578T cells; conditions: Hs-578T
MDA-MB-435 = assay: Cytotoxicity against human MDA-MB-435 cells
BT-549 = assay: Cytotoxicity against human BT549 cells
[2] = read-out: Log LC50 (the source's name) (converted)

CC1OC(=O)[C@H]2[C@H]1[C@@H](O)C[C@H]1[C@]3(C)CC[C@H]4C(C)(C)CCC[C@]4(C)[C@H]3C[C@@H](O)[C@]21C (stereo partly drawn)
GI50 (MOLT-4): 4.79 µM
CC50 (MOLT-4; [2]): > 100 µM
TGI (MOLT-4; read-out: Log TGI (converted)): 20.9 µM
GI50 (RPMI-8226): 16.2 µM
CC50 (RPMI-8226; [2]): > 100 µM
TGI (RPMI-8226; read-out: Log TGI (converted)): 51.3 µM
GI50 (A549): 15.8 µM
CC50 (A549; [2]): 89.1 µM
TGI (A549; read-out: Log TGI (converted)): 37.2 µM
GI50 (EKVX): 23.4 µM
CC50 (EKVX; [2]): 89.1 µM
TGI (EKVX; read-out: Log TGI (converted)): 45.7 µM
GI50 (HOP-62): 15.1 µM
CC50 (HOP-62; [2]): 55 µM
TGI (HOP-62; read-out: Log TGI (converted)): 28.8 µM
GI50 (HOP-92): 17 µM
CC50 (HOP-92; [2]): 93.3 µM
TGI (HOP-92; read-out: Log TGI (converted)): 39.8 µM
GI50 (NCI-H226): 20 µM
CC50 (NCI-H226; [2]): 87.1 µM
TGI (NCI-H226; read-out: Log TGI (converted)): 41.7 µM
GI50 (NCI-H23): 20.4 µM
CC50 (NCI-H23; [2]): 67.6 µM
TGI (NCI-H23; read-out: Log TGI (converted)): 37.2 µM
GI50 (NCI-H322M): 31.6 µM
CC50 (NCI-H322M; [2]): > 100 µM
TGI (NCI-H322M; read-out: Log TGI (converted)): 93.3 µM
GI50 (NCI-H460): 20.9 µM
CC50 (NCI-H460; [2]): 89.1 µM
TGI (NCI-H460; read-out: Log TGI (converted)): 42.7 µM
GI50 (LOX IMVI): 17.4 µM
CC50 (LOX IMVI; [2]): 56.2 µM
TGI (LOX IMVI; read-out: Log TGI (converted)): 30.9 µM
GI50 (HCC 2998): 15.5 µM
CC50 (HCC 2998; [2]): 56.2 µM
TGI (HCC 2998; read-out: Log TGI (converted)): 29.5 µM
GI50 (HCT-116): 11.2 µM
CC50 (HCT-116; [2]): 47.9 µM
TGI (HCT-116; read-out: Log TGI (converted)): 23.4 µM
GI50 (HCT-15): 16.2 µM
CC50 (HCT-15; [2]): 60.3 µM
TGI (HCT-15; read-out: Log TGI (converted)): 31.6 µM
GI50 (HT-29): 17.4 µM
CC50 (HT-29; [2]): 83.2 µM
TGI (HT-29; read-out: Log TGI (converted)): 38 µM
GI50 (KM12): 25.1 µM
CC50 (KM12; [2]): > 100 µM
TGI (KM12; read-out: Log TGI (converted)): 69.2 µM
GI50 (SW-620): 12 µM
CC50 (SW-620; [2]): 52.5 µM
TGI (SW-620; read-out: Log TGI (converted)): 25.1 µM
GI50 (SF-268): 22.4 µM
CC50 (SF-268; [2]): > 100 µM
TGI (SF-268; read-out: Log TGI (converted)): 49 µM
GI50 (SF-295): 19.5 µM
CC50 (SF-295; [2]): > 100 µM
TGI (SF-295; read-out: Log TGI (converted)): 50.1 µM
GI50 (SF-539): 19.1 µM
CC50 (SF-539; [2]): 67.6 µM
TGI (SF-539; read-out: Log TGI (converted)): 36.3 µM
CC50 (SNB-19): 17 µM
GI50 (SNB-75): 20 µM
CC50 (SNB-75; [2]): > 100 µM
TGI (SNB-75; read-out: Log TGI (converted)): 47.9 µM
GI50 (U-251): 17 µM
CC50 (U-251; [2]): 61.7 µM
TGI (U-251; read-out: Log TGI (converted)): 32.4 µM
GI50 (M14): 19.1 µM
CC50 (M14; [2]): 69.2 µM
TGI (M14; read-out: Log TGI (converted)): 36.3 µM
GI50 (SK-MEL-2): 25.1 µM
CC50 (SK-MEL-2; [2]): > 100 µM
TGI (SK-MEL-2; read-out: Log TGI (converted)): 51.3 µM
GI50 (SK-MEL-28): 20 µM
CC50 (SK-MEL-28; [2]): 66.1 µM
TGI (SK-MEL-28; read-out: Log TGI (converted)): 36.3 µM
GI50 (SK-MEL-5): 13.5 µM
CC50 (SK-MEL-5; [2]): 52.5 µM
TGI (SK-MEL-5; read-out: Log TGI (converted)): 26.3 µM
GI50 (UACC-257): 28.2 µM
CC50 (UACC-257; [2]): > 100 µM
TGI (UACC-257; read-out: Log TGI (converted)): 83.2 µM
GI50 (UACC-62): 19.5 µM
CC50 (UACC-62; [2]): 97.7 µM
TGI (UACC-62; read-out: Log TGI (converted)): 43.7 µM
GI50 (IGROV-1): 30.9 µM
CC50 (IGROV-1; [2]): > 100 µM
TGI (IGROV-1; read-out: Log TGI (converted)): 81.3 µM
GI50 (OVCAR-3): 11.5 µM
CC50 (OVCAR-3; [2]): 60.3 µM
TGI (OVCAR-3; read-out: Log TGI (converted)): 26.3 µM
GI50 (OVCAR-5): 20.9 µM
CC50 (OVCAR-5; [2]): 75.9 µM
TGI (OVCAR-5; read-out: Log TGI (converted)): 39.8 µM
GI50 (OVCAR-8): 25.1 µM
CC50 (OVCAR-8; [2]): > 100 µM
TGI (OVCAR-8; read-out: Log TGI (converted)): 63.1 µM
GI50 (SK-OV-3): 38.9 µM
CC50 (SK-OV-3; [2]): > 100 µM
TGI (SK-OV-3; read-out: Log TGI (converted)): > 100 µM
GI50 (786-0): 15.8 µM
CC50 (786-0; [2]): 56.2 µM
TGI (786-0; read-out: Log TGI (converted)): 30.2 µM
GI50 (RXF 393): 14.8 µM
LC50 (RXF 393): 58.9 µM
TGI (RXF 393; read-out: Log TGI (converted)): 29.5 µM
GI50 (SN12C): 17.4 µM
LC50 (SN12C): > 100 µM
TGI (SN12C; read-out: Log TGI (converted)): 46.8 µM
GI50 (TK-10): 30.2 µM
LC50 (TK-10): > 100 µM
TGI (TK-10; read-out: Log TGI (converted)): 79.4 µM
GI50 (UO-31): 20.4 µM
LC50 (UO-31): 75.9 µM
TGI (UO-31; read-out: Log TGI (converted)): 39.8 µM
GI50 (PC-3): 17 µM
LC50 (PC-3): > 100 µM
TGI (PC-3; read-out: Log TGI (converted)): 55 µM
GI50 (NCI/ADR-RES): 18.6 µM
LC50 (NCI/ADR-RES): 83.2 µM
TGI (NCI/ADR-RES; read-out: Log TGI (converted)): 39.8 µM
GI50 (MDA-MB-231): 19.1 µM
LC50 (MDA-MB-231): 87.1 µM
TGI (MDA-MB-231; read-out: Log TGI (converted)): 40.7 µM
GI50 [1]: 19.1 µM
LC50 [1]: > 100 µM
TGI ([1]; read-out: Log TGI (converted)): 53.7 µM
GI50 (MDA-MB-435): 19.1 µM
LC50 (MDA-MB-435): > 100 µM
TGI (MDA-MB-435; read-out: Log TGI (converted)): 51.3 µM
GI50 (BT-549): 17 µM
LC50 (BT-549): 64.6 µM
TGI (BT-549; read-out: Log TGI (converted)): 33.1 µM
